# Several values for one entry are separate records, joined by “and”; a condition that tells them apart may be missing. Equal entries are not always repeated.
# Target: T1, Murine PKD1 kinase domain (Mus musculus, UniProt Q62101)
# T1 construct: hexahistidine (pFastBac HTb leader) (N); made in house; host or cells: Sf9 insect cells, baculovirus (Bac-to-Bac HT, pFastBac HTb)
# T1 sequence (Q62101 with tags, fused parts or gaps R683W): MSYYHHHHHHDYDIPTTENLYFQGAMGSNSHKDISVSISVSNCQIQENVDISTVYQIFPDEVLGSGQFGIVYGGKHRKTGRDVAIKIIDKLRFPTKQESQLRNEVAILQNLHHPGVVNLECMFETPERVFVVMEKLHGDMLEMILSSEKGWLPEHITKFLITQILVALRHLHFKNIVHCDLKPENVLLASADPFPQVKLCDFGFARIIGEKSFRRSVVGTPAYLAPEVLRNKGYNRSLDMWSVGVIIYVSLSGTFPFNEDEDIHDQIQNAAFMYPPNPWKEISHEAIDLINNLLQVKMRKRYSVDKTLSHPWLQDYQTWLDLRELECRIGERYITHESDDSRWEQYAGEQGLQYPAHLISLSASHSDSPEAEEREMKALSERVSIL
# Assay: PKD1 (Murine Kinase Domain) Enzyme Activity Assay (IMAP fluorescence polarisation)
# Format: biochemical
# Details: 10 μM ATP, 60 minutes, room temperature
row,Structure (SMILES),IC50
1,"COc1cc(-c2cc(-c3cccc(C(=O)NCCN(C)C)c3)cnc2N)ccc1O [Y-059, 3-[6-Amino-5-(4-hydroxy-3-methoxy-phenyl)-pyridin-3-yl]-N-(2-dimethylamino-ethyl)-benzamide]",< 1000 nM and 8.5 nM
2,"COc1cc(-c2nc(-c3cccc(C(=O)NCCN(C)C)c3)cnc2N)ccc1O [X-017, 3-[5-Amino-6-(4-hydroxy-3-methoxy-phenyl)-pyrazin-2-yl]-N-(2-dimethylamino-ethyl)-benzamide]",< 1000 nM and 12 nM
3,"COc1cc(-c2cncc(-c3cccc(C(=O)NCCN(C)C)c3)n2)ccc1O [X-007, N-(2-Dimethylamino-ethyl)-3-[6-(4-hydroxy-3-methoxy-phenyl)-pyrazin-2-yl]-benzamide]",< 1000 nM
